This passage reports AC50 results from patent publication US11396513B2, “Compositions for activating pyruvate kinase” (FORMA Therapeutics, Inc., priority 2017, dated 2022).

For assay [1], the target named is PKR(G332S) (Homo sapiens, UniProt P30613, G332S). As to the kind of experiment: Luminescence Assay (Kinase Glo Plus), G332S PKR mutant. The note with it: G332S PKR mutant 10 nM; PEP 100 μM; ADP 100 μM; four parameter fit; triplicate. In kind it is biochemical. As to the method:
(§1) The ability of compound 1 to activate PKR was determined using the following Luminescence Assay. The effect of phosphorylation of adenosine-5′-diphosphate (ADP) by PKR (wild type) is determined by the Kinase Glo Plus Assay (Promega) in the presence or absence of FBP [D-Fructose-1,6-diphosphate; BOC Sciences, CAS: 81028-91-3] as follows. Unless otherwise indicated, all reagents are purchased from Sigma-Aldrich. All reagents are prepared in buffer containing 50 mM Tris-HC1, 100 mM KC1, 5 mM MgC12, and 0.01% Triton X100, 0.03% BSA, and 1 mM DTT. Enzyme and PEP [Phospho(enol) pyruvic acid] are added at 2× to all wells of an assay-ready plate containing serial dilutions of test compounds or DMSO vehicle. Final enzyme concentrations for PKR(wt), PKR(R510Q), and PKR(G332S) are 0.8 nM, 0.8 nM, and 10 nM respectively. Final PEP concentration is 100 μM. The Enzyme/PEP mixture is incubated with compounds for 30 minutes at RT before the assay is initiated with the addition of 2×ADP [Adenosine-5′-diphosphate] and KinaseGloPlus. Final concentration of ADP is 100 μM. […] For assays containing FBP, that reagent is added at 30 μM upon reaction initiation. Reactions are allowed to progress for 45 minutes at RT until luminescence is recorded by the BMG PHERAstar FS Multilabel Reader. The compound is tested in triplicate at concentrations ranging from 42.5 μM to 2.2 nM in 0.83% DMSO. […]

Assay [2] addresses PKR (wild type) (Homo sapiens, UniProt P30613). Put plainly: Luminescence Assay (Kinase Glo Plus), PKR wild type. In kind it is biochemical. As to the method: as §1

Chain of PKR (wild type) (P30613 whole entry): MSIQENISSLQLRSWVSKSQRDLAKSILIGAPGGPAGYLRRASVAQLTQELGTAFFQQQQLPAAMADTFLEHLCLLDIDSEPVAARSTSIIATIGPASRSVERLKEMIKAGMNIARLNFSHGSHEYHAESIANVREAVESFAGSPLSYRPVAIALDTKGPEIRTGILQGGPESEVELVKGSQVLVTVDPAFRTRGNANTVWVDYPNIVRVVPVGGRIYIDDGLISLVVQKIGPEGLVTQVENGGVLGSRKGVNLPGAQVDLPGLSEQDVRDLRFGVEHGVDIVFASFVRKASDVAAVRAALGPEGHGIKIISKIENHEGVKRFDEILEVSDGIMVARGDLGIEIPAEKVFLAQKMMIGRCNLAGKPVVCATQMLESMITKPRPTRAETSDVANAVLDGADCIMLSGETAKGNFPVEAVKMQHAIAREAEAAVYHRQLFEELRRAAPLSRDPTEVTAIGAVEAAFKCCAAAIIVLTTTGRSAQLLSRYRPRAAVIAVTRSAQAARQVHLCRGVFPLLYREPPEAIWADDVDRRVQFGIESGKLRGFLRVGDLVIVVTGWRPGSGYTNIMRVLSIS
Chain of PKR(G332S) (P30613 whole entry G332S): as the sequence (P30613 whole entry) above, with G332S counted along it

`CC(C)(O)C(=O)N1CC2=C(C1)CN(S(=O)(=O)c1ccc3c(c1)NCCO3)C2` [compound 1, 1-(5-((3,4-Dihydro-2H-benzo[b][1,4]oxazin-6-yl)sulfonyl)-3,4,5,6-tetrahydropyrrolo[3,4-c]pyrrol-2(1H)-yl)-2-hydroxy-2-methylpropan-1-one]: the AC50 in assay [1] was 100 to 1000 nM; in assay [2] (Luminescence Assay, PKR form not specified, definition of PKR Activator Compound), below 1000 nM; in assay [2] (PKR wild type enzyme 0.8 nM, PEP 100 μM, ADP 100 μM, four parameter fit, triplicate) it was 100 to 1000 nM.
